Assay results reported in patent US6737417B2, “Compounds with hydroxycarbonyl-halogenoalkyl side chain” (Chugai Seiyaku Kabushiki Kaisha, priority 1999, dated 2004).

tested on: ovariectomized mice administered with 17β-estradiol; assay: Anti-estrogenic activity (oral administration): inhibition of estradiol-induced increase in uterine weight in ovariectomized mice; type: in vivo; details: 10 mg/kg p.o., once a day for 3 days, ovariectomized ICR mice given 17β-estradiol-benzoate 0.1 μg/mouse s.c. for 3 days
Experimental: Test compounds were assayed for their oral anti-estrogenic activity in the following manner. In this experiment, the compounds prepared in Examples 5, 12, 14-33, 37 and 38 were used as test compounds. As control compounds, those having the same structures in the parent scaffold as the test compounds were used, that is, ZM189154 for Examples 5 and 27-33 and ICI182780 for Examples 12, 14-26, 37 and 38.
In this experiment, each of the test and control compounds was suspended in 5% arabic gum solution and orally administered for 3 days on a once-a-day basis. After 24 hours from the last administration, the test animals were sacrificed and the uteri were removed and weighed.

Structure (SMILES) | Inhibition (%)
C[C@]1(c2ccc(O)cc2)CCc2cc(O)ccc2[C@H]1CCCCCCCCC[S+]([O-])CCCC(F)(F)C(F)(F)F (some centres unmarked) [ZM189154, reference compound] | 42

same assay, conditions: 10 mg/kg p.o., once a day for 3 days, ovariectomized ICR mice given 17β-estradiol-benzoate 0.1 μg/mouse s.c. for 3 days, 10 mg/kg

Structure (SMILES) | Inhibition (%)
C[C@]12C[C@H](CCCCCCCCC(CCCCCC(F)(F)C(F)(F)F)C(=O)O)[C@@H]3c4ccc(O)cc4CC[C@H]3[C@@H]1CC[C@@H]2O (stereo partly drawn) [Example 26, 10-(3,17β-dihydroxyestra-1,3,5(10)-trien-11β-yl)-2-(6,6,7,7,7-pentafluoroheptyl)decanoic Acid] | 96

same assay, conditions: po, 24 h, 10 mg/kg p.o., once a day for 3 days, ovariectomized ICR mice given 17β-estradiol-benzoate 0.1 μg/mouse s.c. for 3 days

Structure (SMILES) | inhibition in vivo at 10 mg/kg [%]
C[C@]1(c2ccc(O)cc2)CCc2cc(O)ccc2C1CCCCCCCCC(CCCC(F)(F)C(F)(F)F)C(=O)O (mixture of isomers) [Example 5, 10-[(1RS, 2RS)-6-hydroxy-2-(4-hydroxyphenyl)-2-methyl-1,2,3,4-tetrahydro-1-naphthyl]-2-(4,4,5,5,5-pentafluoropentyl)decanoic Acid] | 67
O=C(O)C(CCCCCCCCCCc1c(-c2ccc(O)c(F)c2)ccc2cc(O)ccc12)CCCC(F)(F)C(F)(F)F (centres unmarked) [Example 33, 12-[2-(3-fluoro-4-hydroxyphenyl)-6-hydroxynaphth-1-yl]-2-(4,4,5,5,5-pentafluoropentyl)dodecanoic Acid] | 64
C[C@]12C[C@H](CCCCCCCCC(CCC(F)(F)C(F)(F)C(F)(F)C(F)(F)F)C(=O)O)[C@@H]3c4ccc(O)cc4CC[C@H]3[C@@H]1CC[C@@H]2O (stereo partly drawn) [Example 23, 10-(3,17β-dihydroxyestra-1,3,5(10)-trien-11β-yl)-2-(3,3,4,4,5,5,6,6,6-nonafluorohexyl)decanoic Acid] | 98
C[C@]12C[C@H](CCCCCCCCC(CCCC(F)(F)C(F)(F)F)C(=O)O)[C@@H]3c4ccc(O)cc4CC[C@H]3[C@@H]1CC[C@@H]2O (stereo partly drawn) [Example 21, 10-(3,17β-dihydroxyestra-1,3,5(10)-trien-11β-yl)-2-(4,4,5,5,5-pentafluoropentyl)decanoic Acid] | 99
C[C@]12CC[C@@H]3c4ccc(O)cc4C[C@@H](CCCCCCCC[C@@H](CCCC(F)(F)C(F)(F)C(F)(F)C(F)(F)F)C(=O)O)[C@H]3[C@@H]1CC[C@@H]2O [Example 38, (2S)-10-(3,17β-dihydroxyestra-1,3,5(10)-trien-7α-yl)-2-(4,4,5,5,6,6,7,7,7-nonafluoroheptyl)decanoic Acid] | 100
O=C(O)C(CCCCCCCCCc1c(-c2ccc(O)cc2)ccc2cc(O)ccc12)CCC(F)(F)C(F)(F)C(F)(F)C(F)(F)F (centres unmarked) [Example 28, 11-[6-hydroxy-2-(4-hydroxyphenyl)naphth-1-yl]-2-(3,3,4,4,5,5,6,6,6-nonafluorohexyl)undecanoic Acid] | 68
C[C@]12CC[C@@H]3c4ccc(O)cc4C[C@@H](CCCCCCCCC(CCCC(F)(F)C(F)(F)C(F)(F)C(F)(F)F)C(=O)O)[C@H]3[C@@H]1CC[C@@H]2O (stereo partly drawn) [Example 15, 10-[3,17β-dihydroxyestra-1,3,5(10)-trien-7α-yl]-2-(4,4,5,5,6,6,7,7,7-nonafluoroheptyl)decanoic Acid] | 96
C[C@]12CC[C@@H]3c4ccc(O)cc4C[C@@H](CCCCCCCCC(CCC(F)(F)C(F)(F)C(F)(F)C(F)(F)F)C(=O)O)[C@H]3[C@@H]1CC[C@@H]2O (stereo partly drawn) [Example 16, 10-[3,17β-dihydroxyestra-1,3,5(10)-trien-7α-yl]-2-(3,3,4,4,5,5,6,6,6-nonafluorohexyl)decanoic Acid] | 98
O=C(O)C(CCCCCCCCCCc1c(-c2ccc(O)cc2F)ccc2cc(O)ccc12)CCCC(F)(F)C(F)(F)F (centres unmarked) [Example 31, 12-[2-(2-fluoro-4-hydroxyphenyl)-6-hydroxynaphth-1-yl]-2-(4,4,5,5,5-pentafluoropentyl)dodecanoic Acid] | 75
C[C@]12CC[C@@H]3c4ccc(O)cc4C[C@@H](CCCCCCCCCC(CCC(F)(F)C(F)(F)C(F)(F)C(F)(F)F)C(=O)O)[C@H]3[C@@H]1CC[C@@H]2O (stereo partly drawn) [Example 19, 11-[3,17β-dihydroxyestra-1,3,5(10)-trien-7α-yl]-2-(3,3,4,4,5,5,6,6,6-nonafluorohexyl)undecanoic Acid] | 92
O=C(O)C(CCCCCCCCCCc1c(-c2ccc(O)cc2)ccc2cc(O)ccc12)CCCC(F)(F)C(F)(F)F (centres unmarked) [Example 27, 12-[6-hydroxy-2-(4-hydroxyphenyl)naphth-1-yl]-2-(4,4,5,5,5-pentafluoropentyl)dodecanoic Acid] | 64
CCc1cc(O)ccc1-c1ccc2cc(O)ccc2c1CCCCCCCCCCC(CCCC(F)(F)C(F)(F)F)C(=O)O (centres unmarked) [Example 30, 12-[2-(2-ethyl-4-hydroxyphenyl)-6-hydroxynaphth-1-yl]-2-(4,4,5,5,5-pentafluoropentyl)dodecanoic Acid] | 58
Cc1cc(O)ccc1-c1ccc2cc(O)ccc2c1CCCCCCCCCCC(CCCC(F)(F)C(F)(F)F)C(=O)O (centres unmarked) [Example 29, 12-[6-hydroxy-2-(4-hydroxy-2-methylphenyl)-naphth-1-yl]-2-(4,4,5,5,5-pentafluoropentyl)dodecanoic Acid] | 80
C[C@]12C[C@H](CCCCCCCCCC(CCCC(F)(F)C(F)(F)C(F)(F)C(F)(F)F)C(=O)O)[C@@H]3c4ccc(O)cc4CC[C@H]3[C@@H]1CC[C@@H]2O (stereo partly drawn) [Example 25, 11-(3,17β-dihydroxyestra-1,3,5(10)-trien-11β-yl)-2-(4,4,5,5,6,6,7,7,7-nonafluoroheptyl)undecanoic Acid] | 93
C[C@]12C[C@H](CCCCCCCCCC(CCC(F)(F)C(F)(F)C(F)(F)C(F)(F)F)C(=O)O)[C@@H]3c4ccc(O)cc4CC[C@H]3[C@@H]1CC[C@@H]2O (stereo partly drawn) [Example 20, 11-(3,17β-dihydroxyestra-1,3,5(10)-trien-11β-yl)-2-(3,3,4,4,5,5,6,6,6-nonafluorohexyl)undecanoic Acid] | 94
C[C@]12C[C@H](CCCCCCCCCC(CCCC(F)(F)C(F)(F)F)C(=O)O)[C@@H]3c4ccc(O)cc4CC[C@H]3[C@@H]1CC[C@@H]2O (stereo partly drawn) [Example 24, 11-(3,17β-dihydroxyestra-1,3,5(10)-trien-11β-yl)-2-(4,4,5,5,5-pentafluoropentyl)undecanoic Acid] | 98
C[C@]12C[C@H](CCCCCCCCC(CCCCCC(F)(F)C(F)(F)F)C(=O)O)[C@@H]3c4ccc(O)cc4CC[C@H]3[C@@H]1CC[C@@H]2O (stereo partly drawn) [Example 12, 10-[3,17β-dihydroxyestra-1,3,5(10)-trien-11β-yl]-2-(6,6,7,7,7-pentafluoroheptyl)decanoic Acid] | 97
C[C@]12C[C@H](CCCCCCCCC(CCCC(F)(F)C(F)(F)C(F)(F)C(F)(F)F)C(=O)O)[C@@H]3c4ccc(O)cc4CC[C@H]3[C@@H]1CC[C@@H]2O (stereo partly drawn) [Example 22, 10-(3,17β-dihydroxyestra-1,3,5(10)-trien-11β-yl)-2-(4,4,5,5,6,6,7,7,7-nonafluoroheptyl)decanoic Acid] | 98
C[C@]12CC[C@@H]3c4ccc(O)cc4C[C@@H](CCCCCCCC[C@H](CCCC(F)(F)C(F)(F)C(F)(F)C(F)(F)F)C(=O)O)[C@H]3[C@@H]1CC[C@@H]2O [Example 37, (2R)-10-(3,17β-dihydroxyestra-1,3,5(10)-trien-7α-yl)-2-(4,4,5,5,6,6,7,7,7-nonafluoroheptyl)decanoic Acid] | 101
C[C@]12CC[C@@H]3c4ccc(O)cc4C[C@@H](CCCCCCCCC(CCCCCC(F)(F)C(F)(F)F)C(=O)O)[C@H]3[C@@H]1CC[C@@H]2O (stereo partly drawn) [Example 17, 10-[3,17β-dihydroxyestra-1,3,5(10)-trien-7α-yl]-2-(6,6,7,7,7-pentafluoroheptyl)decanoic Acid] | 94
C[C@]12CC[C@@H]3c4ccc(O)cc4C[C@@H](CCCCCCCCC[S+]([O-])CCCC(F)(F)C(F)(F)F)[C@H]3[C@@H]1CC[C@@H]2O (some centres unmarked) [ICI182780, reference compound] | 51
O=C(O)C(CCCCCCCCCCc1c(-c2ccc(O)cc2C(F)(F)F)ccc2cc(O)ccc12)CCCC(F)(F)C(F)(F)F (centres unmarked) [Example 32, 12-[6-hydroxy-2-(4-hydroxy-2-trifluoromethylphenyl)naphth-1-yl]-2-(4,4,5,5,5-pentafluoropentyl)-dodecanoic Acid] | 73
C[C@]12CC[C@@H]3c4ccc(O)cc4C[C@@H](CCCCCCCCCC(CCCC(F)(F)C(F)(F)C(F)(F)C(F)(F)F)C(=O)O)[C@H]3[C@@H]1CC[C@@H]2O (stereo partly drawn) [Example 18, 11-[3,17β-dihydroxyestra-1,3,5(10)-trien-7α-yl]-2-(4,4,5,5,6,6,7,7,7-nonafluoroheptyl)undecanoic Acid] | 85
C[C@]12CC[C@@H]3c4ccc(O)cc4C[C@@H](CCCCCCCCC(CCCC(F)(F)C(F)(F)F)C(=O)O)[C@H]3[C@@H]1CC[C@@H]2O (stereo partly drawn) [Example 14, 10-[3,17β-dihydroxyestra-1,3,5(10)-trien-7α-yl]-2-(4,4,5,5,5-pentafluoropentyl)decanoic Acid] | 87
